We go through 2 molecules from patent US4888329A, “Antiulcer composition” (Senju Pharmaceutical Co., Ltd., priority 1987, dated 1989).

Each structure is given as a SMILES string. Where only a bound is given, the exact number is not on record here.

The nature of one series: Toxicity in rat (LD50). The following applies: in vivo. The source says: For instance, the toxicity in rat of disodium salt of phosphoric acid diester of L-ascorbic acid and DL-α-tocopherol was observed as follows: […]
The test system of series [1] is rat stress ulcer. The experiment in a line: Effect on rat stress ulcer, oral (Experimental Example 1). The class given is in vivo, male Wistar rats. The settings on record: disodium salt; for Length of ulcer: mean ± S.E., 5 h water immersion at 23° C., control 25.5 ± 4.29; for % Inhibition: length of ulcer vs control, 5 h water immersion. As to the method: The test drug was administered orally to male Wistar rats weighing 230-270 g and after 30 minutes, the four limbs of each rat were fixed to a board with tying thread. The rats were then immersed in water at 23° C. for 5 hours for stress loading. Ten minutes before water immersion, 3 ml/kg of 5% Pontamine Sky Blue was intravenously injected. After this 5-hour water immersion, the rats were removed from the water and the stomach was excised and fixed in 1% aqueous formaldehyde. Then, the length of the gastric ulcer induced was measured.
*Control: 5% gum arabic solution, 5 ml/kg
In the above table, each value in the column corresponding to length of ulcer is the mean ± S.E. (standard error) and the figure in parentheses denotes the number of the cases.

The subject of series [2] is indomethacin-induced ulcer. The experiment in a line: Effect on indomethacin-induced ulcer (Experimental Example 3). The series is classed as in vivo, male Donryu rats. The settings on record: disodium salt; for Length of ulcer: 30 min before indomethacin, mean ± S.E., 7 h after indomethacin, control 30.8 ± 5.97; for % Inhibition: length of ulcer vs control. The method, then: Male Donryu rats weighing 180-200 g were fasted for 24 hours and, then, a suspension of indomethacin in 1% carboxymethylcellulose (30 mg/[…]) was subcutaneously injected. The test drug was orally administered 30 minutes before indomethacin loading. Ten minutes before sacrifice at 7 hours after indomethacin loading, 3 ml/kg 5% Pontamine Sky Blue was intravenously injected. After sacrifice, the stomach was excised and fixed in 1% aqueous formaldehyde. Then, the length (mm) of the gastric ulcer induced was measured.
*5% gum arabic solution, 5 ml/kg
In the above table, each value in the column corresponding to the length of ulcer is the mean ± S.E. and the figure in parentheses denotes the number of cases.

Series [3] relates to rat stress ulcer. Description: Effect on rat stress ulcer, intraperitoneal (Experimental Example 2). The series is classed as in vivo, male Wistar rats. The following applies: 10 mg/5ml/kg intraperitoneal, disodium salt. The method, then: The test drug was aministered intraperitoneally to male Wistar rats weighing about 150 g. After 30 minutes, each rat was fixed to a board with tying thread and immersed in water at 23° C. for 7 hours for stress loading. Ten minutes before water immersion, 3 ml/kg of 5% Pontamine Sky Blue was intravenously administered.
After this 7-hour water immersion, the rats were removed from the water and the stomach was excised and fixed in 1% aqueous formaldehyde. Then, the length (mm) of the gastric ulcer induced was measured.
(§1) *physiological saline, 5 ml/kg
In the above table, each value in the column corresponding to the length of ulcer is the mean ± S.E. and the figure in the parentheses denotes the number of cases.

The subject of series [4] is rat stress ulcer. The experiment in a line: Effect on rat stress ulcer, intraperitoneal (Experimental Example 4). The series is classed as in vivo, male Wistar rats. The following applies: for Length of ulcer: mean ± S.E., 7 h water immersion at 23° C., control 31.7 ± 3.64; for % Inhibition: length of ulcer vs control. The method, then:
The test drugs were administered intraperitoneally to male Wistar rats weighing about 130-190 g and after 30 minutes, the four limbs of each rat were fixed to a board with tying thread. The rats were then immersed in water at 23° C. for 7 hours for stress loading. Ten minutes before water immersion, 3 ml/kg of 5% Pontamine Sky Blue was intravenously injected. After 7-hour water immersion, the rats were removed from the water and stomach was excised and fixed in 1% aqueous formaldehyde. Then length of gastric ulcer induced was measured.
as §1
In the above table, each value in the column corresponding to length of ulcer is the mean ± S.E. and the figure in the parentheses denotes the number of cases.

In the case of `Cc1c(C)c2c(c(C)c1OP(=O)(O)OC1=C(O)[C@@H]([C@@H](O)CO)OC1=O)CCC(C)(CCCC(C)CCCC(C)CCCC(C)C)O2` (mixture of isomers) [α-EPC, phosphoric acid diester of L-ascorbic acid and DL-α-tocopherol], the LD50 (in general, the dose expected to kill half of the subjects tested) in “Toxicity in rat (LD50)” (po, per os) was greater than 10000 mg/kg; in the series “Toxicity in rat (LD50)” (sc, subcutaneous administration) it was 793 mg/kg. Moreover, the Length of ulcer in the series on rat stress ulcer [1] (100 mg/5ml/kg oral, n=5) was determined as 19.4 ± 6.91 mm; in the series on rat stress ulcer [1] (1000 mg/5ml/kg oral, n=6), 10.3 ± 3.51 mm; in series [2] (300 mg/5 ml/kg oral, n=8) it was 20.4 ± 3.72 mm; in series [2] (1000 mg/5 ml/kg oral, n=9), 3.5 ± 1.54 mm; in the series on rat stress ulcer [3] (mean ± S.E., n=6, 7 h water immersion at 23° C., control 34.3 ± 4.76), 7.7 ± 6.00 mm; with rat stress ulcer [4] (10 mg/5 ml/kg intraperitoneal, disodium salt, n=10) it was 8.5 ± 4.06 mm. Moreover, the Length of ulcer in the series with rat stress ulcer [4] (30 mg/5 ml/kg intraperitoneal, disodium salt, n=5) is 2.8 ± 1.27 mm. The % Inhibition – broadly, how much of the control response was suppressed – was 23.9% in the series with rat stress ulcer [1] (100 mg/5ml/kg oral); 59.6% in the series on rat stress ulcer [1] (1000 mg/5ml/kg oral); 33.8% in series [2] (300 mg/5 ml/kg oral); 88.6% in series [2] (1000 mg/5 ml/kg oral); 77.6% in the series on rat stress ulcer [3] (length of ulcer vs control, 7 h water immersion); 73.2% with rat stress ulcer [4] (10 mg/5 ml/kg intraperitoneal, disodium salt). The “% Inhibition” value in the series on rat stress ulcer [4] (30 mg/5 ml/kg intraperitoneal, disodium salt) was 91.2%.

With `CN/C(=N/CCSCc1nc[nH]c1C)NC#N` [Cimetidine, reference compound], the Length of ulcer with rat stress ulcer [4] (200 mg/5 ml/kg intraperitoneal, n=5) is given as 7.4 ± 7.16 mm. Also, in the series on rat stress ulcer [4] (200 mg/5 ml/kg intraperitoneal), the “% Inhibition” value amounted to 76.7%.
